For this assay, the target named is T1, aldose reductase (Rattus norvegicus, UniProt P07943).
T1 construct: Then their crystalline lenses were immediately removed and stored at -80° C; The lenses were homogenized; from tissue; host or cells: crystalline lenses of six-week-old male SD rats
Description: Aldose reductase inhibitory effect (enzyme from crystalline lenses, DL-glyceraldehyde substrate). In kind it is biochemical, rat (male SD). Particulars: 10 mM DL-glyceraldehyde, pH 6.2, 30° C. The method, then: Six-weeks-old male SD rates were anesthetized with ether and killed. Then their crystalline lenses were immediately removed and stored at -80° C. […] All operations were conducted at 4° C. and the enzyme solution was stored at -80° C.
More specifically, 0.1 ml of DL glyceraldehyde (final concentration: 10 mM) was added to 0.9 ml of 100 mM sodium potassium phosphate buffer (pH 6.2) which contained lithium sulfate (final concentration: 400 mM), reduced nicotinamide adenine dinucleotide phosphate (final concentration: 0.15 mM), the enzyme solution, and the compound to be evaluated (final concentration: 10^-6 M, 10^-7 M or […]), and then the reaction was conducted at 30° C. for 5 minutes. During the reaction, the change in the absorbance at 340 nm with time was monitored. The maximum reducing rate of the absorbance (U) during the reaction was determined. By subtracting, from this value, the maximum reducing rate (Uo) at 340 nm of the reaction solution before the addition of the substrate (DL-glyceraldehyde), the reaction rate (V=U-Uo) was calculated as a true reaction rate in the presence of the compound to be tested.
The same procedure was repeated except for the absence of the compound to be tested. A true reaction rate (Vo) in case the enzyme was not inhibited was calculated (Vo =U'-Uo '). The aldose reductase inhibitory activity of the test compounds was determined according to the following formula:
Rate of Inhibition (%)=(Vo -V)/Vo ×100
A word on the IC50: it is the concentration that inhibits the measured activity by half. Take `CSc1ccc(-c2nnnn2CC(=O)O)o1` [Example 2-30, [5-(5-methylthio-2-furyl)tetrazol-1-yl] acetic acid]: the midpoint of inhibition, the IC50, lay at 110 nM.

For the molecule `O=C(O)Cn1nnnc1-c1sccc1NC(=O)CCc1ccccc1` [Example 2-19, [5-(3-phenethylcarbonylamino-2-thienyl)tetrazol-1-yl] acetic acid], it took 24 nM to reach half-maximal inhibition (IC50).

On to `O=C(O)Cn1nnnc1-c1ccc(Sc2ccccc2)s1` [Example 2-34, [5-(5-phenylthio-2-thienyl)tetrazol-1-yl] acetic acid], for which inhibition was half-maximal at 26 nM (IC50).

`O=C(O)Cn1nnnc1-c1sccc1O` [Example 2-42, [5-(3-hydroxy-2-thienyl)tetrazol-1-yl] acetic acid] came in with an IC50 of 20 nM.

In turn, `COC(=O)Cn1nnnc1-c1ccsc1SC` [Example 3-11, methyl [5-(2-methylthio-3-thienyl)tetrazol-1-yl] acetate] displayed an IC50 of 380 nM.

`CCCCN(CCCC)S(=O)(=O)c1ccc(-c2nnnn2CC(=O)O)s1` [Example 2-36] showed an IC50 of 85 nM.

Molecule `CSc1occc1-c1nnnn1CC(=O)O` [Example 2-32, [5-(2-methylthio-3-furyl)tetrazol-1-yl] acetic acid] displayed an IC50 of 35 nM.

With `O=C(O)Cn1nnnc1-c1ccc(-c2ccccc2)s1` [Example 2-14, [5-(5-phenyl-2-thienyl)tetrazol-1-yl] acetic acid], 21 nM corresponded to half-maximal inhibition (IC50).

As for `O=C(O)Cn1nnnc1-c1ccc(Br)o1` [Example 2-29, [5-(5-bromo-2-furyl)tetrazol-1-yl] acetic acid], it took 160 nM to reach half-maximal inhibition (IC50).

`Cc1sccc1-c1nnnn1CC(=O)O` [Example 2-12, [5-(2-methyl-3-thienyl)tetrazol-1-yl] acetic acid] registered an IC50 of 10 nM.

The molecule `COc1ccsc1-c1nnnn1CC(=O)O` [Example 2-15, [5-(3-methoxy-2-thienyl)tetrazol-1-yl] acetic acid] had an IC50 of 29 nM.

Regarding `CCOC(=O)Cn1nnnc1-c1ccsc1` [Example 3-2, ethyl [5-(3-thienyl)tetrazol-1-yl] acetate], the IC50 was 580 nM.

Regarding `CCCCOc1ccsc1-c1nnnn1CC(=O)O` [Example 2-16, [5-(3-butoxy-2-thienyl)tetrazol-1-yl] acetic acid], the IC50 worked out at 31 nM.

Molecule `O=C(O)Cn1nnnc1-c1ccc(S(=O)(=O)N2CCCCC2)s1` [Example 2-37, [5-(5-piperidinosulfonyl2-thienyl)tetrazol-1-yl] acetic acid] gave an IC50 of 230 nM.

In turn, `CSc1sccc1-c1nnnn1CC(=O)O` [Example 2-26, [5-(2-methylthio-3-thienyl)tetrazol-1-yl] acetic acid] displayed an IC50 of 31 nM.

As for `COC(=O)Cn1nnnc1-c1sccc1NS(=O)(=O)c1ccccc1` [Example 1-27, methyl [5-(3-phenylsulfonylamino-2-thienyl)tetrazol-1-yl acetate], the midpoint of inhibition, the IC50, lay at 230 nM.

Molecule `CCCCS(=O)(=O)Nc1ccsc1-c1nnnn1CC(=O)O` [Example 2-40, [5-(3-butylsulfonylamino-2-thienyl)tetrazol-1-yl] acetic acid] returned an IC50 of 16 nM.

For the molecule `COCc1ccc(-c2nnnn2CC(=O)O)s1` [Example 2-22, [5-(5-methoxymethyl-2-thienyl)tetrazol-1-yl] acetic acid], the midpoint of inhibition, the IC50, lay at 31 nM.

For the molecule `O=C(O)Cn1nnnc1-c1ccc(CBr)s1` [Example 2-13, [5-(5-bromomethyl-2-thienyl)tetrazol-1-yl] acetic acid], the IC50 was 25 nM.

Take `COC(=O)Cn1nnnc1-c1ccoc1` [Example 1-7, methyl (5-(3-furyl)tetrazol-1-yl] acetate]: the IC50 came out at 740 nM.

`CCCCc1ccc(-c2nnnn2CC(=O)O)s1` [Example 2-20, [5-(5-butyl-2-thienyl)tetrazol-1-yl] acetic acid] gave an IC50 of 23 nM.

`O=C(O)Cn1nnnc1-c1ccoc1Br` [Example 2-31, [5-(2-bromo-3-furyl)tetrazol-1-yl] scetic acid]: 85 nM corresponded to half-maximal inhibition (IC50).

Molecule `Cc1ccc(-c2nnnn2CC(=O)O)o1` [Example 2-27, [5-(5-methyl-2-furyl)tetrazol-1-yl] acetic acid] registered an IC50 of 150 nM.

`O=C(O)Cn1nnnc1-c1ccc(CCCc2ccccc2)s1` [Example 2-21, [5-(5-phenylpropyl-2-thienyl)tetrazol-1-yl] acetate acid]: the IC50 is 28 nM.

With `Cc1ccc(-c2nnnn2CC(=O)O)s1` [Example 2-4, [5-(5-methyl-2-thienyl)tetrazol-1-yl] acetic acid], the IC50 is 23 nM.

`CSc1ccc(-c2nnnn2CC(=O)O)s1` [Example 2-10] came in with an IC50 of 20 nM.

Take `O=C(O)Cn1nnnc1-c1ccsc1Br` [Example 2-24, [5-(2-bromo-3-thienyl)tetrazol-1-yl] acetic acid]: it took 38 nM to reach half-maximal inhibition (IC50).

In turn, `COC(=O)Cn1nnnc1-c1ccsc1` [Example 1-5, methyl [5-(3-thienyl)tetrazol-1-yl] acetate] came in with an IC50 of 960 nM.

Molecule `CC(=O)Nc1ccsc1-c1nnnn1CC(=O)O` [Example 2-17] showed an IC50 of 28 nM.

`CCCCc1ccc(-c2nnnn2CC(=O)OC)s1` [Example 3-5, methyl [5-(5-butyl-2-thienyl)tetrazol-1-yl] acetate] yielded an IC50 of 180 nM.

`CCCCOCc1ccc(-c2nnnn2CC(=O)O)s1` [Example 2-23, [5-(5-butoxymethyl-2-thienyl)tetrazol-1-yl] acetic acid]: the IC50 was 25 nM.

As for `CCN(CC)S(=O)(=O)c1ccc(-c2nnnn2CC(=O)O)s1` [Example 2-35, [5-[5-(N,N-diethylaminosulfonyl)-2-thienyl]tetrazol-1-yl] acetic acid], the IC50 was 390 nM.

`O=C(O)Cn1nnnc1-c1ccc(Cc2ccccc2)s1` [Example 2-9, [5-(5-benzyl-2-thienyl)tetrazol-1-yl] acetic acid] displayed an IC50 of 20 nM.

Take `C[S+]([O-])c1sccc1-c1nnnn1CC(=O)O` (centres unmarked) [Example 2-43, [5-(2-methylsulfinyl-3-thienyl)tetrazol-1-yl] acetic acid]: the IC50 was determined as 300 nM.

Take `CCCCc1ccc(-c2nnnn2CC(=O)O)o1` [Example 2-28, [5-(5-butyl-2-furyl)tetrazol1-yl-] acetic acid]: the IC50 amounted to 130 nM.

Molecule `O=C(O)Cn1nnnc1-c1sccc1NS(=O)(=O)c1ccccc1` [Example 2-41, [5-(3-phenylsulfonylamino-2-thienyl)tetrazol-1-yl] acetic acid] gave an IC50 of 23 nM.

Molecule `CCc1ccc(-c2nnnn2CC(=O)O)s1` [Example 2-8, [5-(5-ethyl-2-thienyl)tetrazol-1-yl] acetic acid] came in with an IC50 of 21 nM.

Molecule `CS(=O)(=O)Nc1ccsc1-c1nnnn1CC(=O)O` [Example 2-39, [5-(3-methylsulfonylamino-2-thienyl)tetrazol-1-yl] acetic acid] displayed a 50% inhibitory concentration (IC50) of 28 nM.

Turning to `Cc1csc(-c2nnnn2CC(=O)O)c1` [Example 2-3, [5-(4-methyl-2-thienyl)tetrazol-1-yl] acetic acid], the IC50 came out at 24 nM.

With `O=C(O)Cn1nnnc1-c1ccc(Br)s1` [Example 2-11, [5-(5-bromo-1-thienyl)tetrazol-1-yl] acetic acid], the half-maximal inhibitory concentration (IC50) stood at 19 nM.

The molecule `O=C(O)Cn1nnnc1-c1ccco1` [Example 2-6, [5-(2-furyl)tetrazol-1-yl] acetic acid] registered an IC50 of 60 nM.

These data come from patent USRE35321E, “Tetrazoleacetic acid derivatives having aldose reductase inhibitory activity” (Wakamoto Pharmaceutical Co., Ltd., priority 1990, dated 1996).
